Results as given in patent US12036312B2, “Non-aqueous topical compositions comprising a halogenated salicylanilide” (priority 2016, dated 2024).

System: S. aureus
Assay: MIC assay according to CLSI criteria, Example 2, S. aureus strains
Type: cell-based, Staphylococcus aureus
Details: Staphylococcus aureus
Text: Chosen for its relevance regarding bacterial skin infections, the methicillin-resistant S. aureus (MRSA) 01 strain was used as the primary test microorganism. This strain is a community-acquired MRSA clinical isolate of USA 300 type, from a skin abscess.
Two-hundred-four other MRSA and methicillin-sensitive S. aureus strains, and 4 Streptococcus pyogenes strains, were also included in the study. These covered fusidic acid- and mupirocin-resistant strains, these two types of resistance being of clinical relevance.
Strains were conserved in Luria Bertani (LB) Broth (S. aureus) or Brain Heart Infusion (BHI) (S. pyogenes) supplemented with glycerol 15% (v/v) at −80° C., and reactivated by isolation on LB (S. aureus) or BHI (S. pyogenes) agar plates. Strains were cultivated in Mueller Hinton (MH) Broth-cation adjusted (S. aureus) or BHI (S. pyogenes). All strains were cultivated aerobically (microaerobically for S. pyogenes strains) at 37° C.
Bacterial cultures were stopped in their exponential growth phase and plates were inoculated with the approximate concentration of 5×10^5 cells per well. Plates were incubated at 37° C. for 18 hours (S. aureus) or 24 hours (S. pyogenes). Optical density at a wavelength of 600 nm was measured at the end of the incubation time.

Measured: MIC

CN[C@H](CC(C)C)C(=O)N[C@H]1C(=O)N[C@@H](CC(N)=O)C(=O)N[C@H]2C(=O)N[C@H]3C(=O)N[C@H](C(=O)N[C@H](C(=O)O)c4cc(O)cc(O)c4-c4cc3ccc4O)[C@H](O)c3ccc(c(Cl)c3)Oc3cc2cc(c3O[C@@H]2O[C@H](CO)[C@@H](O)[C@H](O)[C@H]2O[C@H]2C[C@](C)(N)[C@H](O)[C@H](C)O2)Oc2ccc(cc2Cl)[C@H]1O [Vancomycin, vancomycin]
0.5 µg/mL: MRSA, strain MRSA 22 | MRSA, strain MRSA 47 | MRSA, strain MRSA 48 | MRSA, strain MRSA 55 | MRSA, strain MRSA 60
1 µg/mL: ATCC29213, strain ATCC 29213 | MRSA, strain MRSA 01 | MRSA, strain MRSA 03 | MRSA, strain MRSA 05 | MRSA, strain MRSA 07 | MRSA, strain MRSA 08 | MRSA, strain MRSA 10 | MRSA, strain MRSA 11 | MRSA, strain MRSA 13 | MRSA, strain MRSA 14 | MRSA, strain MRSA 16 | MRSA, strain MRSA 18 | MRSA, strain MRSA 19 | MRSA, strain MRSA 20 | MRSA, strain MRSA 21 | MRSA, strain MRSA 23 | MRSA, strain MRSA 25 | MRSA, strain MRSA 26 | MRSA, strain MRSA 27 | MRSA, strain MRSA 27b | MRSA, strain MRSA 28 | MRSA, strain MRSA 29 | MRSA, strain MRSA 30 | MRSA, strain MRSA 31 | MRSA, strain MRSA 32 | MRSA, strain MRSA 33 | MRSA, strain MRSA 34 | MRSA, strain MRSA 35 | MRSA, strain MRSA 36 | MRSA, strain MRSA 37 | MRSA, strain MRSA 38 | MRSA, strain MRSA 39 | MRSA, strain MRSA 40 | MRSA, strain MRSA 41 | MRSA, strain MRSA 42 | MRSA, strain MRSA 43 | MRSA, strain MRSA 44 | MRSA, strain MRSA 45 | MRSA, strain MRSA 46 | MRSA, strain MRSA 50 | MRSA, strain MRSA 51 | MRSA, strain MRSA 52 | MRSA, strain MRSA 53 | MRSA, strain MRSA 56 | MRSA, strain MRSA 57 | MRSA, strain MRSA 58 | MRSA, strain MRSA 59 | MRSA, strain MRSA 63 | MRSA, strain MRSA 64 | MRSA, strain MRSA 65 | MRSA, strain MRSA 66 | MRSA, strain MRSA 67 | MRSA, strain MRSA 68 | MRSA, strain MRSA 69 | MRSA, strain MRSA 70 | MRSA, strain MRSA 71 | MRSA, strain MRSA 72 | MRSA, strain MRSA 73 | MRSA, strain MRSA 74 | MRSA, strain MRSA 75 | MRSA, strain MRSA 76 | MRSA, strain MRSA 78 | MRSA, strain MRSA 79 | MRSA, strain MRSA 80 | MRSA, strain MRSA 81 | MRSA, strain MRSA 83 | MRSA, strain MRSA 85 | MRSA, strain MRSA 87 | MRSA, strain MRSA 88 | MRSA, strain MRSA 89 | MRSA, strain MRSA 90 | MRSA, strain MRSA 91 | MRSA, strain MRSA 92 | MRSA, strain MRSA 96 | MRSA, strain MRSA 97 | MRSA, strain MRSA 98 | MRSA, strain MRSA 99 | MRSA, strain MRSA 100 | MRSA, strain MRSA 101
2 µg/mL: MRSA, strain MRSA 02 | MRSA, strain MRSA 04 | MRSA, strain MRSA 06 | MRSA, strain MRSA 09 | MRSA, strain MRSA 15 | MRSA, strain MRSA 17 | MRSA, strain MRSA 24 | MRSA, strain MRSA 49 | MRSA, strain MRSA 54 | MRSA, strain MRSA 61 | MRSA, strain MRSA 62 | MRSA, strain MRSA 77 | MRSA, strain MRSA 82 | MRSA, strain MRSA 84 | MRSA, strain MRSA 86 | MRSA, strain MRSA 93 | MRSA, strain MRSA 94 | MRSA, strain MRSA 95
